This is an account of results in PMC3068151 (PLoS ONE, 2011).

Each structure is given as a SMILES string.

Experiment [1] concerns the target T1, EGFR (Homo sapiens, UniProt P00533). Description: Phosphorylated-EGFR sandwich ELISA in HT29 cells. Format: cell-based. The settings on record: 100 µM, 10 ng/ml EGF. Here is the method:
(§1) Cells were seeded in 12-well plates at concentration of 10^5cells/ml in complete medium until they reached ∼40% confluence and serum starved overnight. The day after cells were treated with compounds under study, vehicle or standard drug, stimulated with the proper agonist, rinsed with sterile PBS and solubilized in lysis buffer. The lysates were resuspended and rocked at 4°C for 30 minutes and then centrifuged at 14000 xg for 5 minutes. The protein content of supernatant was measured with BCA protein assay kit (Thermo scientific), standardized to 200 µg/ml and transferred into a clean test tube ready to be used.
(§2) EphA2-, EphB4- and EGFR-phosphorylation were measured in cell lysates using DuoSet®IC Sandwich ELISA (RnD Systems, #DYC4056, #DYC4057 and #DYC1095, respectively) following manufacturer's protocol. […] The day after wells were washed and blocked for 1 hour at room temperature. After that, wells were washed and 100 µl/well of lysates were added at room temperature for 2 hours; wells were washed and incubated with Detection Antibody at room temperature for 2 hours.
(§3) A, B) EGFR phosphorylation was induced by 30 ng/ml and 10 ng/ml EGF on PC3 (A) and HT29 (B) cells, respectively. […] Data are the means of two experiments ± st. err.
(In general: In an ELISA, binding on a coated surface is turned into a signal by an enzyme label.)

Another experiment deals with T2, IGFR1β (Homo sapiens, UniProt P08069).
T2 construct: in HepG2 or A431 cells, respectively; endogenous in cells; host or cells: A431 according to b24; HepG2 according to the order in the legend b55
In words: IGFR1β activity, alpha Technology. It counts as cell-based. Conditions: 100 µM, 5 nM IGF1. Here is the method: Cells were stimulated with 5 nM IGF1 or 100 nM insulin for 10 minutes, lysed and a fluorescence acceptor (alphaLISA protein A beads coated with anti-phospho-IRKβ or -IGFR1β) added for 2 hours. A fluorescence donor (streptavidin coupled-beads) coated with an antibody towards IRKβ or IGFR1β was incubated for 2 hours and the signal was measured at λex = 680 nm and λem = 500 nm and 600 nm using a microplate reader (EnVision, Perkin Elmer, Waltham, MA, USA).
(§4) These assays were performed at CEREP (Celle L'Evescault, France).
as §3

The subject of a further experiment is VEGFR. Description: VEGFR activity, cellular dielectric spectroscopy in HUVE cells. It counts as cell-based. The settings on record: 100 µM, 0.1 nM VEGF. Here is the method:
Impedance measurement was monitored for 10 minutes. VEGF receptor tyrosine kinase inhibitor II (Calbiochem-Merck, Darmstadt, Germany) was used as a standard reference.
as §4, §3

Experiment [2] has as its target T1, EGFR. Description: Phosphorylated-EGFR sandwich ELISA in PC3 cells. Format: cell-based. Conditions: 100 µM, 30 ng/ml EGF. Here is the method: as §1, §2, §3
The test system of the next experiment is PC3 cells. In words: PC3 cell rounding assay. Format: cell-based, human. Conditions: for inhibition of ephrinA1-Fc induced PC3 cell rounding: 0.5 µg/ml ephrinA1-Fc, 30 minutes. Here is the method: PC3 cells were grown on 12-well culture plates and starved overnight in Ham-F12 medium with 0.5% FBS. DMSO (final concentration 0.25%) or compounds were incubated for 20 min, before stimulation with 0.5 µg/ml ephrinA1-Fc or Fc for 30 minutes. During this time cells were observed and pictures were taken from the same field, before and after incubation, under a microscope (Leica, DM IL). Cell rounding was evaluated using ImageJ program.
Cell images were collected from the same field at time 0 and 30 minutes using a digital camera mounted on a Leica DM IL microscope. […] Cells, which rounded their shape and having an area less than 20% of the initial value, were scored as retracting. Data are the means of at least three independent experiments ± st. err. One-way ANOVA followed by Dunnet's post test was performed comparing ephrinA1-Fc+DMSO to all other columns. *, p<0.05, **,p<0.01.

For experiment [3], the target named is T3, EphA2 (Homo sapiens, UniProt P29317). Conditions: up to 100 µM. Here is the method: Recombinant human EphA2 enzyme activity was evaluated with LANCE® method using ATP and Ulight-TK peptide as substrate (http://las.perkinelmer.com/).
In a further experiment the test system is EphA kinases. Description: ELISA displacement of biotinylated ephrinA1-Fc from immobilized EphA-Fc ectodomains. It counts as binding. Conditions: biotinylated ephrinA1-Fc at KD concentration. Here is the method: Our chemical collection (Table S1) was stocked in a 20 mM dimethyl sulfoxide (DMSO) solution and we performed binding assay at a concentration of 200 µM. Only compounds displacing more than 40% ephrinA1 from EphA2 receptor were considered for a full concentration-binding curve. […] The day after wells were washed three times with washing buffer (PBS +0.05% tween20, pH 7.5) and blocked with 300 µl of blocking solution (PBS +0.5% BSA) for 1 hour at 37°C. Compounds were added to the wells at proper concentration in 1% dimethyl sulfoxide (DMSO) and incubated at 37°C for 1 hour. Biotinylated ephrinA1-Fc (R&D BT602) was added at 37°C for 4 hours at 30 ng/ml in displacement assays or in a range from 1 to 2000 ng/ml in saturation studies. […] The reaction was stopped with 3N HCl 100 µl/well and the absorbance was measured using an ELISA plate reader (Sunrise, TECAN, Switzerland) at 450 nm.
Data are the means of at least three independent experiments ± st. err.

Experiment [4] addresses T3, EphA2. Description: Phosphorylated-EphA2 sandwich ELISA in PC3 cell lysates. Format: cell-based. Also noted: their known ability to naturally express EphA2; endogenous in cells; host or cells: PC3 (A5). The settings on record: PC3 cells. Here is the method:
as §1, §2
EphB4 phosphorylation was stimulated with 3 µg/ml ephrinB2-Fc, preclustered with 0.3 µg/ml IgG Fc fragment on T47D cells (G, H, I). […] Phospho-EphA2/B4 levels are relative to ephrinA1/B2-Fc+DMSO. Data are the means of at least three independent experiment ± st. err. One-way ANOVA followed by Dunnet's post test was performed comparing Fc to all other columns for Fig A, D, G and ephrinA1-Fc+DMSO to all other columns for Fig B,C,E, F, H, I. *, p<0.05, **, p<0.01.

A further experiment deals with EphB kinases. In words: ELISA displacement of biotinylated ephrinB1-Fc from immobilized EphB-Fc ectodomains. The settings on record: biotinylated ephrinB1-Fc at KD concentration. Format: binding.

T3 sequence (P29317 24-976): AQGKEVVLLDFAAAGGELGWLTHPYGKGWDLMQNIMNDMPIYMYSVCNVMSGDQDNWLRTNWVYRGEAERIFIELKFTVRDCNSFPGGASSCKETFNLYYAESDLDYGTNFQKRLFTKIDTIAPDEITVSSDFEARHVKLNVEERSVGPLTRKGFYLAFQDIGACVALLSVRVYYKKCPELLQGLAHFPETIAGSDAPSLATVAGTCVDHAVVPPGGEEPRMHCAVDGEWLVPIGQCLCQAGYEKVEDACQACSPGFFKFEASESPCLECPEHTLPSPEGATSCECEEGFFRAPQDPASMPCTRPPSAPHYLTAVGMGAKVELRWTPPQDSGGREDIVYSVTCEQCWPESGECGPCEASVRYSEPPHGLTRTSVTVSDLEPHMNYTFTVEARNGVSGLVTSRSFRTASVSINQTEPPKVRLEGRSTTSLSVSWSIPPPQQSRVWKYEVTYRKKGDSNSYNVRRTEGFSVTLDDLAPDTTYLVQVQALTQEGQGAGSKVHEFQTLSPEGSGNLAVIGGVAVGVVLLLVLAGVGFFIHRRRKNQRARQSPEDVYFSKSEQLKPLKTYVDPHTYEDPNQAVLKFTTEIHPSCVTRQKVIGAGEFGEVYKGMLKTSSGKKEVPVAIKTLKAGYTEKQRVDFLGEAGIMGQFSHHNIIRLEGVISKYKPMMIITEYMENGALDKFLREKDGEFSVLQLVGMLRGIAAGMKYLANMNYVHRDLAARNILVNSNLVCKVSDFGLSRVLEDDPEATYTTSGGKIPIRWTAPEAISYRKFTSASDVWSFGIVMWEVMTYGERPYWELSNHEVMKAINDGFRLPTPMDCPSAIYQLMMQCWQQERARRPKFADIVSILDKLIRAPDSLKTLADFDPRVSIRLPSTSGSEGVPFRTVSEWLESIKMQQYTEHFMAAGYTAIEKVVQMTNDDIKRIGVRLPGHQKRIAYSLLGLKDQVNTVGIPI
T1 sequence (P00533 25-1210): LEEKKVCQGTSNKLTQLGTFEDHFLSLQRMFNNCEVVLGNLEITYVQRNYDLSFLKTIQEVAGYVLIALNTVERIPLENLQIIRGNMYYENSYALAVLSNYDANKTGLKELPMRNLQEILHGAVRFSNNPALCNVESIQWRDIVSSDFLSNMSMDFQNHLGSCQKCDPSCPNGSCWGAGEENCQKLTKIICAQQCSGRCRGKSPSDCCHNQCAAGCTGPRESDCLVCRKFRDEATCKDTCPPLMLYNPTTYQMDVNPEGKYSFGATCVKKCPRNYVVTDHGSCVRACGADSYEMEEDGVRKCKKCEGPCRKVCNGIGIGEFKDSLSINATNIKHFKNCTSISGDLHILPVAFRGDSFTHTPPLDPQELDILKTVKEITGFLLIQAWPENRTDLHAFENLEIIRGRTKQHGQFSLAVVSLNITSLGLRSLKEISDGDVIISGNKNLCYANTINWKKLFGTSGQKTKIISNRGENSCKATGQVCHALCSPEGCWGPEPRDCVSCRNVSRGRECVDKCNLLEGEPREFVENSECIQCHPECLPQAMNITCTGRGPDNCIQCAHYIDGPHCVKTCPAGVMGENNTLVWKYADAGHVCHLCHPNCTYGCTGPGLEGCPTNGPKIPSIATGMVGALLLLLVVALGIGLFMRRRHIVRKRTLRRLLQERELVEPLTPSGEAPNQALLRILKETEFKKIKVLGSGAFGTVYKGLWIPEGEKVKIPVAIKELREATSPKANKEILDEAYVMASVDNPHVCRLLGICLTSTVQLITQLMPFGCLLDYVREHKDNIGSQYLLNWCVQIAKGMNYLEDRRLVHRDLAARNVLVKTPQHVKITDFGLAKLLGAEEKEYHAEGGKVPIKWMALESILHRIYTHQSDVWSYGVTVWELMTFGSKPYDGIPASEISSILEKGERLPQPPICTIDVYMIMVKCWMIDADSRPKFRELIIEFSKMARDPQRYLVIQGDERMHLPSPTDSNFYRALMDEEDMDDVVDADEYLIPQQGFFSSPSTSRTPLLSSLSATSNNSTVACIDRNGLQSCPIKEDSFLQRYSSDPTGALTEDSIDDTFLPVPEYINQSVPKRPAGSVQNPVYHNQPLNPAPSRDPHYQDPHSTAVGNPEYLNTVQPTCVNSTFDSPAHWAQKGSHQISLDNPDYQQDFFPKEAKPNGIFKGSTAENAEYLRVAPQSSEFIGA
T2 sequence (P08069 741-1367 limits assumed): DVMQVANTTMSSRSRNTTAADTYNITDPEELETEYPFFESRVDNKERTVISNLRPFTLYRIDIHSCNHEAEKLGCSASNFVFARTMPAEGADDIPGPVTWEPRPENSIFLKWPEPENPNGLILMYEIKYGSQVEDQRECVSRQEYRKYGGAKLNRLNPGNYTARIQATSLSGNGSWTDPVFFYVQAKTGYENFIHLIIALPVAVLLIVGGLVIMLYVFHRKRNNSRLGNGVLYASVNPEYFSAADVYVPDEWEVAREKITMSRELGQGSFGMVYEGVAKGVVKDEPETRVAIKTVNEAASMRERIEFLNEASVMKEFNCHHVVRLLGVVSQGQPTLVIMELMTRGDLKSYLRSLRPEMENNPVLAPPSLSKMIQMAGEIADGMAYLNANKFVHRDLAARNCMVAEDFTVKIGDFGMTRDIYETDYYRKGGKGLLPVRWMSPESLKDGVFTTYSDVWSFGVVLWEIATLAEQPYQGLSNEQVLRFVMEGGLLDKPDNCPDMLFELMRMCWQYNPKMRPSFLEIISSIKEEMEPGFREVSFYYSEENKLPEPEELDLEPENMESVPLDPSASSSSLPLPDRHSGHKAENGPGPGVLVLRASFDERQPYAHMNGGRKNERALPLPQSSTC
T2 sequence (P08069 31-736 partner limits assumed): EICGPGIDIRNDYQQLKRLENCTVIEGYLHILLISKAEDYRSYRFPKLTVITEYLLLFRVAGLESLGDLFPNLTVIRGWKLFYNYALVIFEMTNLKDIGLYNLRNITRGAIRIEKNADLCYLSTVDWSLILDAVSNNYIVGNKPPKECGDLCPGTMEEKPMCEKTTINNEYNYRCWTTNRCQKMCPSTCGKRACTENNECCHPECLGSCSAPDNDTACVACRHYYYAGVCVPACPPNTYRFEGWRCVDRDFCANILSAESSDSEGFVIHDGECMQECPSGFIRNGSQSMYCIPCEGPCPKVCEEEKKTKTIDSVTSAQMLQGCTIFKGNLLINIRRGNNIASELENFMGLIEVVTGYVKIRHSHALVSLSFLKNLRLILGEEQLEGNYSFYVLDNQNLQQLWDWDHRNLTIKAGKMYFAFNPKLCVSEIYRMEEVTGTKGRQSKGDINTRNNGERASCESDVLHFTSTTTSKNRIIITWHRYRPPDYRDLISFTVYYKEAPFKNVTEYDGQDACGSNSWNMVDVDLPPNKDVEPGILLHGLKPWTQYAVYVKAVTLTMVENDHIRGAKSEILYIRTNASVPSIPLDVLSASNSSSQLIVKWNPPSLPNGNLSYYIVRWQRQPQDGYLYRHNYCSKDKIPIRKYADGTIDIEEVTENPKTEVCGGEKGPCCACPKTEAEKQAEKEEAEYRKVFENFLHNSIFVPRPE

With `C[C@H](CCC(=O)O)[C@H]1CC[C@H]2[C@@H]3CC[C@@H]4C[C@H](O)CC[C@]4(C)[C@H]3CC[C@]12C` [LCA, lithocholic acid], the “effect on EGF-induced EGFR phosphorylation” value at EGFR [1] and at EGFR [2] was “completely inactive” each time. Moreover, on IGFR1β, the “effect on IGFR1β activity as agonist or antagonist” value is given as “failed to affect activity”. The “effect on VEGFR activity as agonist or antagonist” value in the experiment with VEGFR is “failed to affect activity”. Further, the “inhibition of ephrinA1-Fc induced PC3 cell rounding” value in the experiment on PC3 cells (10 µM) is “inactive”; in the experiment on PC3 cells (100 µM) it was “blocked cell rounding”. For the same compound, the “changes in PC3 cell morphology by compound alone” value in the experiment on PC3 cells (incubated with Fc for 30 minutes) was “Neither DMSO 0.25% nor LCA alone induced changes in cell morphology”. For the same compound, on EphA2 [3], the “effect on EphA2 enzymatic activity” value is recorded as “did not modify enzymatic activity”. Moreover, the “displacement of ephrin-A1-Fc ectodomain from immobilized EphA-Fc ectodomains” value with EphA kinases is on record as “dose-dependently displaced”. In addition, the “inhibition of EphA2 phosphorylation” value is on record as “subthreshold” against EphA2 [4] (10 µM) and “inhibiting completely” at EphA2 [4] (100 µM). The “displacement of ephrin-B1-Fc ectodomain from immobilized EphB-Fc ectodomains” value in the experiment with EphB kinases is reported as “dose-dependently displaced”.
